The source of these data is ChEMBL document CHEMBL1126434, “Anti-allergic and anti-inflammatory actions of 2-(tetrazole-5-yl)-4-hydroxy-2-methyl-2H-1,2-benzothiazine-3-carboxanilide 1,1-dioxide” (1992).

Common to all, as to assay type: functional
The species named for assay [1] is Rattus norvegicus. Nature of the assay: Compound was evaluated for the inhibition of biosynthesis of prostaglandins at a concentration of 10e5 M.
The test system of assay [2] is Rattus norvegicus. Nature of the assay: Compound was assessed for ulcerogenicity in rats at a dose of 500 mg/kg.
For assay [3], the species on record is Rattus norvegicus. Description: Compound was evaluated for the inhibition of biosynthesis of prostaglandins at a concentration of 10e4 M.
The species named for assay [4] is Rattus norvegicus. Nature of the assay: Compound was evaluated for the inhibition of biosynthesis of prostaglandins at a concentration of 10e3 M.
In assay [5] the test system is Rattus norvegicus. Description: Compound was assessed for ulcerogenicity in rats at a dose of 300 mg/kg.

Molecules are shown by their SMILES.

Take `CN1C(C(=O)Nc2ccccc2-c2nn[nH]n2)=C(O)c2ccccc2S1(=O)=O`: the Inhibition in assay [1], in assay [3] and in assay [4] was 0% in each case. Besides, the Ulcer index in assay [2] and in assay [5] was 0 each time.
On to `COc1ccc(/C=C/C(=O)Nc2ccccc2C(=O)O)cc1OC` [TRANILAST], for which the Inhibition in assay [1], in assay [3] and in assay [4] was 0% in each case. Further, the Ulcer index in assay [2] and in assay [5] was 0 in each case.
